Assay results reported in publication PMC7029851, “Antibacterial activity of novel dual bacterial DNA type II topoisomerase inhibitors” (PLoS ONE, 2020).
pIC50: −log10 of the molar value. Where two headings read alike, the source gives them in different places.

Experiments:
[1] = system: E. coli clinical isolates (n = 36); test: MIC, multidrug-resistant clinical isolates; type: cell-based, Escherichia coli; details: Escherichia coli, E. coli MDR clinical isolates (n = 36)
Protocol: (§1) The bacterial reference strains used in this study were purchased from ATCC (American Type Culture Collection) via LGC Standards (Middlesex, UK). […] Clinical MDR isolates were provided by Aptuit, the IHMA Europa Sàrl repository (Epalinges, Switzerland) and the Statens Serum Institute (Copenhagen, Denmark).
(§2) MICs were determined by the broth microdilution method (the agar dilution method was used only for N. gonorrhoeae) according to CLSI guidelines.
(§3) The results obtained using clinical isolates are reported as MIC50 and MIC90 values.

S. aureus ATCC 29213 [2] = type: cell-based, Staphylococcus aureus; details: S. aureus ATCC 29213, 2×MIC
hERG channel = molecular target: T1, hERG channel (Homo sapiens, UniProt Q12809); test: hERG automated patch clamp assay; type: cell-based; details: CHO-K1, read-out: IC50 against hERG channels
T1 construct: expressed in transfected cells; host or cells: CHO-K1
Text: hERG automated patch clamp assay. The human recombinant ERG CHO-K1 cell line was used in an automated patch clamp assay (qPatch system) to evaluate the hERG channel blockade potential of compounds 1 and 2 [36]. Concentration (log) response curves were fitted to a logistic equation to generate estimates of the 50% inhibitory value.

A. baumannii APV00473 = test: MIC, broth microdilution; type: cell-based; details: Acinetobacter baumannii; A. baumannii APV00473, ciprofloxacin-resistant
Protocol: as §2

E. coli 4SI = test: MIC, broth microdilution; type: cell-based; details: Escherichia coli, ciprofloxacin-resistant
Protocol: as §2

S. pyogenes APV00074 = test: MIC, broth microdilution; type: cell-based; details: Streptococcus pyogenes; S. pyogenes APV00074, ciprofloxacin-susceptible
Protocol: as §2

S. pyogenes APV00083 = test: MIC, broth microdilution; type: cell-based; details: Streptococcus pyogenes; S. pyogenes APV00083, ciprofloxacin-susceptible
Protocol: as §2

A. baumannii ATCC 19606 = test: MIC, broth microdilution; type: cell-based; details: Acinetobacter baumannii, ATCC19606; A. baumannii ATCC 19606, ciprofloxacin-susceptible
Protocol: as §2

[3] = system: K. pneumoniae AcrAB- mutant; test: microbe, parasite or virus in culture; type: cell-based; details: Klebsiella pneumoniae
Outline: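 MICs against efflux-deficient mutant strains were determined by broth microdilution following CLSI guidelines.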

[4] = system: S. aureus clinical isolates (n = 10); test: microbe, parasite or virus in culture; type: cell-based, Staphylococcus aureus
Protocol: as §1, §2, §3

E. coli ATCC 25922 [5] = test: Post-antibiotic effect (PAE); type: cell-based, Escherichia coli; details: 1× and 4× MIC
Protocol: A drug-free control was included in each experiment. After being exposed to the drug for 1 hour, viable counts were conducted in triplicate by spotting aliquots (10 μl) of suitable dilutions onto MHA plates. The drugs were removed by diluting the bacterial cultures (1:1000) in Cation-Adjusted Mueller-Hinton Broth (CAMHB; Sigma-Aldrich). The diluted cultures were incubated in a shaking bath at 37°C. To monitor the ongoing suppression of bacterial growth over time (5 hours), aliquots from each broth culture were periodically collected, diluted and plated to perform subsequent viable counts (in triplicate).

[6] = system: A. baumannii clinical isolates (n = 10); test: microbe, parasite or virus in culture; type: cell-based, Acinetobacter baumannii
Protocol: as §1, §2, §3

S. aureus ATCC 29213 [7] = test: Minimal bactericidal concentration; type: cell-based, Staphylococcus aureus
Protocol: (§4) Minimal bactericidal concentrations (MBCs) were determined according to the procedure described by Knapp. Viable counts were performed after plates were incubated at 37°C for 24 hours. The MBC was defined as the lowest concentration that reduced the viability of the initial bacterial inoculum by ≥99.9%.

S. aureus BAA-1720 = test: Minimal bactericidal concentration; type: cell-based, Staphylococcus aureus
Protocol: as §4

C. difficile ATCC 700057 = test: MIC, broth microdilution; type: cell-based, Clostridium difficile; details: Clostridioides difficile, ATCC700057
Protocol: MICs were determined by the broth microdilution method (the agar dilution method was used only for N. gonorrhoeae) according to CLSI guidelines. […] The MIC values of antibiotics used in clinical practice were interpreted according to the susceptibility interpretive criteria reported in the appropriate CLSI Tables (M100-S25, CLSI, 2015).

[8] = system: CYP1A, CYP2B6, CYP2C8, CYP2C9, CYP2D6 and CYP3A4; test: Inhibition of P450 isoenzymes; type: in vitro ADME; details: human, read-out: % inhibition of CYP450 isoenzymes other than CYP2C19
Text: (§5) Inhibition of P450 isoenzymes.

CYP2C19 = CYP2C19 (Homo sapiens, UniProt P33261); test: Inhibition of P450 isoenzymes; type: in vitro ADME
Text: as §5

[9] = system: S. aureus ATCC 29213 and S. aureus BAA-1720; test: MIC in the presence of 20% human serum
E. coli ATCC 25922 [10] = test: Minimal bactericidal concentration; type: cell-based, Escherichia coli
Protocol: as §4

[11] = system: C. difficile clinical isolates (n = 21); test: MIC, multidrug-resistant clinical isolates; type: cell-based, Clostridium difficile; details: Clostridioides difficile, C. difficile clinical isolates (n = 21)
Protocol: as §1, §2, §3

E. coli ATCC 25922 [12] = test: Time-kill assay; type: cell-based, Escherichia coli; details: 1× to 4× MIC, over 24 hours
Protocol: Time-kill experiments were performed according to the procedure reported by Knapp. […] A drug-free control was included in each experiment. The bacterial cultures were standardized to obtain an initial inoculum that ranged from 5×10^5 to 5×10^6 CFU/ml. The cultures were incubated at 37°C in a shaking bath. At 0, 2, 4, 8 and 24-hour intervals, viable counts were performed by spotting (in triplicate) 10 μl aliquots of suitable dilutions of the cultures onto Mueller-Hinton agar (MHA, Oxoid, Basingstoke, UK) plates. After incubation at 37°C for 24 hours, the bactericidal activity, namely, the ability to reduce the initial inoculum by 3 log10 CFU/ml, was assessed for each tested concentration over time.

[13] = S. aureus MDR clinical isolates (n = 10)

T1 sequence (Q12809 whole entry): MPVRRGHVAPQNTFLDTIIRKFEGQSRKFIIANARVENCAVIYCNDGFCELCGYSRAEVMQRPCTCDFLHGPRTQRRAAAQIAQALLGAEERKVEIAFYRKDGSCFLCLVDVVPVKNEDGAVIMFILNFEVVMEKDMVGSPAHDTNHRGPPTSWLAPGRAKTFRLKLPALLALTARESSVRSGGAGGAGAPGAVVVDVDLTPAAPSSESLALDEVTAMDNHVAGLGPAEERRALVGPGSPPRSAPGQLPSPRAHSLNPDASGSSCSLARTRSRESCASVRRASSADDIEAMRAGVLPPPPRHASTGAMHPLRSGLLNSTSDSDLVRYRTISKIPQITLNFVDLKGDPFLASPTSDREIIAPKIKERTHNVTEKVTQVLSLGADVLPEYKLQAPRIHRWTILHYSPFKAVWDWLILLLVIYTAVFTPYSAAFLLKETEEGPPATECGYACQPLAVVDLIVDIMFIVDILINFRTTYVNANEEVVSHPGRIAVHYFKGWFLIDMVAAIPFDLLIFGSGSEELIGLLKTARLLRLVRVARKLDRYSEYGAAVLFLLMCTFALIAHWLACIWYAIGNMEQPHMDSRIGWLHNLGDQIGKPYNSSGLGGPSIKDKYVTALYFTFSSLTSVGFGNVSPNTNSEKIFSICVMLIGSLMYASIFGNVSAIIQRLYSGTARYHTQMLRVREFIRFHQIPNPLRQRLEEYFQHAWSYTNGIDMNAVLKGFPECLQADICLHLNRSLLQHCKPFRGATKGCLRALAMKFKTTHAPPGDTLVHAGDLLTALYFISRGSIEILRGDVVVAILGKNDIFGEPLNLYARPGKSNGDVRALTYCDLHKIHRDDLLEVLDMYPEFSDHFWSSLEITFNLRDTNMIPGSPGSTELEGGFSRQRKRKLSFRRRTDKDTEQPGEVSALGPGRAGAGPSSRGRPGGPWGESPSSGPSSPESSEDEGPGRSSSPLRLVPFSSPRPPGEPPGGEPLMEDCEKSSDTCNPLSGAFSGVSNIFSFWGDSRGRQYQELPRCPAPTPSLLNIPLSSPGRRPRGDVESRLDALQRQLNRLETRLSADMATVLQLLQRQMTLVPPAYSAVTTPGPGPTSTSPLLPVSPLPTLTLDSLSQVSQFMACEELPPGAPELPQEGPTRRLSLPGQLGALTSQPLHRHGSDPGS
Chain of CYP2C19 (P33261 whole entry): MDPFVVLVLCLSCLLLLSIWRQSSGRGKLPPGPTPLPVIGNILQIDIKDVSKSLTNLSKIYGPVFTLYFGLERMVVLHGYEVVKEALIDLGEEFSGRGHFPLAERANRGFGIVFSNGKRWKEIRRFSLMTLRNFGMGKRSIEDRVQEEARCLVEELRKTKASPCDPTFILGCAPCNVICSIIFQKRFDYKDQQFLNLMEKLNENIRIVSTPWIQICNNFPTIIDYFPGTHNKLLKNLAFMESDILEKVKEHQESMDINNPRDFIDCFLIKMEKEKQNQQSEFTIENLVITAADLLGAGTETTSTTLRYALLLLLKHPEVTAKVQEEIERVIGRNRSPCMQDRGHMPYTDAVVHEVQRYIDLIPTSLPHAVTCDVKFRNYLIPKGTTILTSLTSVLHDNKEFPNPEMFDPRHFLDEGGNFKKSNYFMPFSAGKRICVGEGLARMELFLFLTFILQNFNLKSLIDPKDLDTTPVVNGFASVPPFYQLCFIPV

Cl.N#Cc1ccc2ccc(=O)n([C@H]3CC[C@H](NCc4cc5c(=O)oc6ccc(F)cc6c5[nH]4)CC3)c2c1 [Compound 2, 1-(trans-4-{[(8-fluoro-4-oxo-1,4-dihydro[1]benzopyrano[4,3-b]pyrrol-2-yl)methyl]amino}cyclohexyl)-2-oxo-1,2-dihydroquinoline-7-carbonitrile hydrochloride]
MIC [1]: 0.5 to 4 µg/mL
MIC50 ([1]; read-out: MIC50): 1 µg/mL
MIC90 ([1]; read-out: MIC90): 2 µg/mL
In vitro frequency of resistant mutants (S. aureus ATCC 29213 [2]): 6.7×10^−7
pIC50 (hERG channel): < 4.00
MIC (A. baumannii APV00473): 0.5 µg/mL
MIC (E. coli 4SI): 0.5 µg/mL
MIC (S. pyogenes APV00074): ≤ 0.06 µg/mL
MIC (S. pyogenes APV00083): ≤ 0.06 µg/mL
MIC (A. baumannii ATCC 19606): 0.12 µg/mL
MIC [3]: ≤ 0.016 µg/mL
MIC50 [4, 13]: ≤ 0.06 µg/mL
MIC90 [4, 13]: ≤ 0.06 µg/mL
MIC range [4, 13]: ≤0.06 µg/mL
MIC ([4]; Staphylococcus aureus, MRSA, S. aureus APV0063, MRSA): ≤ 0.06 µg/mL
MIC ([4]; Staphylococcus aureus, MRSA, S. aureus APV0064, MRSA): ≤ 0.06 µg/mL
MIC ([4]; Staphylococcus aureus, MRSA, S. aureus APV0065, MRSA): ≤ 0.06 µg/mL
MIC ([4]; Staphylococcus aureus, S. aureus APV00045, M (macrolide resistance)): ≤ 0.06 µg/mL
MIC ([4]; Staphylococcus aureus, S. aureus APV0048, MLSi): ≤ 0.06 µg/mL
MIC ([4]; Staphylococcus aureus, S. aureus APV0049, MLSi): ≤ 0.06 µg/mL
MIC ([4]; Staphylococcus aureus, S. aureus APV0052, MLSc): ≤ 0.06 µg/mL
MIC ([4]; Staphylococcus aureus, S. aureus APV0053, MLSc): ≤ 0.06 µg/mL
MIC ([4]; Staphylococcus aureus, S. aureus APV00280, M (macrolide resistance)): ≤ 0.06 µg/mL
MIC ([4]; Staphylococcus aureus, S. aureus APV00281, M (macrolide resistance)): ≤ 0.06 µg/mL
MIC50 ([4]; Staphylococcus aureus, S. aureus MDR clinical isolates (n = 10), read-out: MIC50): ≤ 0.06 µg/mL
MIC90 ([4]; Staphylococcus aureus, S. aureus MDR clinical isolates (n = 10), read-out: MIC90): ≤ 0.06 µg/mL
PAE compared with ciprofloxacin (E. coli ATCC 25922 [5]): approximately two-fold greater
MIC range [6]: ≤0.06 to 0.12 µg/mL
MIC50 ([6]; Acinetobacter baumannii): ≤ 0.06 µg/mL
MIC90 ([6]; Acinetobacter baumannii): 0.12 µg/mL
MBC/MIC (S. aureus ATCC 29213 [7]): 16
MBC (S. aureus ATCC 29213 [7]; Staphylococcus aureus, ATCC29213, ≥99.9% reduction of inoculum): 0.5 µg/mL
MBC/MIC (S. aureus ATCC 29213 [7]; listed as compound 2): ≥ 16
MBC/MIC (S. aureus BAA-1720): 125
MBC (S. aureus BAA-1720; Staphylococcus aureus, BAA1720, ≥99.9% reduction of inoculum): 2 µg/mL
MBC/MIC (S. aureus BAA-1720; listed as compound 2): ≥ 16
MIC (C. difficile ATCC 700057): 0.25 µg/mL
inhibition at 10 µM [8]: ≤ 35%
inhibition at 10 µM (CYP2C19): 69%
Change of MIC in the presence of 20% human serum [9]: not modified
MBC/MIC (E. coli ATCC 25922 [10]): 2
MBC (E. coli ATCC 25922 [10]; Escherichia coli, ATCC25922, ≥99.9% reduction of inoculum): 1 µg/mL
MIC50 ([11]; read-out: MIC50): 0.12 µg/mL
MIC90 ([11]; read-out: MIC90): 0.25 µg/mL
MIC ([11]; read-out: MIC range): 0.06 to 0.25 µg/mL
Bactericidal activity in time-kill (reduction of 3 log10 CFU/ml) (E. coli ATCC 25922 [12]): no bactericidal activity
